17 molecules from ChEMBL document CHEMBL5665443, “Enzyme Inhibitor Single Concentration assay results for EUbOPEN Chemogenomics Library” (2024) can be followed below.

Structures are written as SMILES.

Common to all, as to conditions: Compound Concentration 10.0 uM, Hit No
Experiment [1] concerns the target Uracil-DNA glycosylase (Homo sapiens) (UniProt P13051).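 Also: UNG excision on a quenched double-stranded DNA oligo probe, with APE1 added for strand incision and turnover, read as fluorescence at 594 nm as strands separate.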
Description: Inhibition of UNG by quantifying inhibition of UNG-mediated cleavage and dissociation of quenched duplex DNA oligonucleotides, measured as fluorescence at 594 nm. To generate a functional strand incision and increase turn-over this assay is coupled to APE1.
The target in experiment [2] is T1, Endonuclease 8-like 2 (Homo sapiens) (UniProt Q969S2).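 Also: fluorescence at 594 nm reports NEIL2 cutting and release of a quenched double-stranded DNA oligo substrate, reduced signal read as inhibition.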
T1 sequence (whole entry): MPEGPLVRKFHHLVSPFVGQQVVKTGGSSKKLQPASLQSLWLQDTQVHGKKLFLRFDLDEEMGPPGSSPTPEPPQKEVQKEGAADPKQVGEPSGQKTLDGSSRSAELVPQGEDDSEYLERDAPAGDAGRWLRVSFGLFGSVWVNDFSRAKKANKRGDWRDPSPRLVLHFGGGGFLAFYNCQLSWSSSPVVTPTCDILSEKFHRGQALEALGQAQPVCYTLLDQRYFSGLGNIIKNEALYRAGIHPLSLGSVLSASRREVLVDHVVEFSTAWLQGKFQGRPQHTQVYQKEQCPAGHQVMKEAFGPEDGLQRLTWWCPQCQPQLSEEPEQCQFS
Description: Inhibition of NEIL2 by quantifying inhibition of NEIL2-mediated cleavage and dissociation of quenched duplex DNA oligonucleotides, measured as fluorescence at 594 nm.

Experiment [3] concerns the target Endonuclease 8-like 1 (Homo sapiens) (UniProt Q96FI4).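 Also: fluorescence at 594 nm from quenched duplex DNA oligonucleotides released by NEIL1 cleavage and strand separation, reported as reduction of this enzyme activity.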
Description: Inhibition of NEIL1 by quantifying inhibition of NEIL1-mediated cleavage and dissociation of quenched duplex DNA oligonucleotides, measured as fluorescence at 594 nm.
For experiment [4], the target named is Methyl-CpG-binding domain protein 4 (Homo sapiens) (UniProt O95243).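 Also: MBD4 activity read as fluorescence at 594 nm from cleavage and release of a quenched duplex DNA oligonucleotide, with APE1 coupled to incise the strand and raise turnover.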
Description: Inhibition of MBD4 by quantifying inhibition of MBD4-mediated cleavage and dissociation of quenched duplex DNA oligonucleotides, measured as fluorescence at 594 nm. To generate a functional strand incision and increase turn-over this assay is coupled to APE1.
In experiment [5] the target is DNA-3-methyladenine glycosylase (Homo sapiens) (UniProt P29372).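 Also: enzyme assay where MPG cuts a quenched duplex DNA oligonucleotide probe, paired with APE1 for strand incision and turnover, read as fluorescence at 594 nm.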
Description: Inhibition of MPG by quantifying inhibition of MPG-mediated cleavage and dissociation of quenched duplex DNA oligonucleotides, measured as fluorescence at 594 nm. To generate a functional strand incision and increase turn-over this assay is coupled to APE1.
The target in experiment [6] is T2, Adenine DNA glycosylase (Homo sapiens) (UniProt Q9UIF7).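 Also: human MUTYH activity read as 594 nm fluorescence from cleavage and release of a quenched DNA duplex, coupled with APE1 for strand incision, lower signal meaning inhibition.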
T2 sequence (whole entry): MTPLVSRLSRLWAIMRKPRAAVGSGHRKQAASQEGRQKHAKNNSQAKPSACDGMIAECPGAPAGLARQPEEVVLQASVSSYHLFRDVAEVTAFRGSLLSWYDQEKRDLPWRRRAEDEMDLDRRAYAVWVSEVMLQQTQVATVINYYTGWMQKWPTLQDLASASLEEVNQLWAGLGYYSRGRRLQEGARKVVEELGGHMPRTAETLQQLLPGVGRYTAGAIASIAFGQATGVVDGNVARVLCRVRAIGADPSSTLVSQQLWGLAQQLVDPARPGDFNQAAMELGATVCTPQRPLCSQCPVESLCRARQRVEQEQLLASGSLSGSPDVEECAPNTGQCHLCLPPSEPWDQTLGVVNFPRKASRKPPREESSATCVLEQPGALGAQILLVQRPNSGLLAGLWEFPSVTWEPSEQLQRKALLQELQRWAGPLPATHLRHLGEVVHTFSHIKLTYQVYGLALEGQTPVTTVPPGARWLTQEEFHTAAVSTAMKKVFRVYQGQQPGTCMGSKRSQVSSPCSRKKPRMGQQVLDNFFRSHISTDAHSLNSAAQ
Description: Inhibition of MUTYH by quantifying inhibition of MUTYH-mediated cleavage and dissociation of quenched duplex DNA oligonucleotides, measured as fluorescence at 594 nm. To generate a functional strand incision and increase turn-over this assay is coupled to APE1.

Experiment [7] has as its target T3, Endonuclease III-like protein 1 (Homo sapiens) (UniProt P78549).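 Also: enzyme assay tracking NTHL1 cutting and release of a quenched double-stranded DNA oligo substrate, read as fluorescence at 594 nm.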
T3 sequence (whole entry): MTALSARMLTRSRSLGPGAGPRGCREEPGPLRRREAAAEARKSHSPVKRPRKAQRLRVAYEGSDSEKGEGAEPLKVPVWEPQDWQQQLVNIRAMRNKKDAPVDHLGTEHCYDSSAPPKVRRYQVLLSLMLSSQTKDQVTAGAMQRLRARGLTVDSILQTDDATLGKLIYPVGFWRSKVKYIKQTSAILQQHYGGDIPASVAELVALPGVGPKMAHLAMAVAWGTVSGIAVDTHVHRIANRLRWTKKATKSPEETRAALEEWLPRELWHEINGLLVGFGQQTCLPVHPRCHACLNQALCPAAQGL
Description: Inhibition of NTHL1 by quantifying inhibition of NTHL1-mediated cleavage and dissociation of quenched duplex DNA oligonucleotides, measured as fluorescence at 594 nm.

Experiment [8] concerns the target G/T mismatch-specific thymine DNA glycosylase (Homo sapiens) (UniProt Q13569).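 Also: human TDG cleavage of quenched duplex DNA oligonucleotides coupled to APE1, strand release read as fluorescence at 594 nm, inhibition of TDG activity.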
Description: Inhibition of TDG by quantifying inhibition of TDG-mediated cleavage and dissociation of quenched duplex DNA oligonucleotides, measured as fluorescence at 594 nm. To generate a functional strand incision and increase turn-over this assay is coupled to APE1.
Experiment [9] concerns the target T4, Single-strand selective monofunctional uracil DNA glycosylase (Homo sapiens) (UniProt Q53HV7).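 Also: enzymatic SMUG1 assay coupled with APE1, reading fluorescence at 594 nm released when a quenched double-stranded DNA oligonucleotide substrate is cleaved and separated.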
T4 sequence (whole entry): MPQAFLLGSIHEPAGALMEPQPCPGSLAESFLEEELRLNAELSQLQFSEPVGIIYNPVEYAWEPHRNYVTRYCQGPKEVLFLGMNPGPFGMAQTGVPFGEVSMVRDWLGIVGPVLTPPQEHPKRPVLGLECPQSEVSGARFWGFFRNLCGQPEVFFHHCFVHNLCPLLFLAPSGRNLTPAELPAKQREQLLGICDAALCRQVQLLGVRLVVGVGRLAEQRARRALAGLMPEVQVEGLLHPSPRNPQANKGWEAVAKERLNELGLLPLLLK
Description: Inhibition of SMUG1 by quantifying inhibition of SMUG1-mediated cleavage and dissociation of quenched duplex DNA oligonucleotides, measured as fluorescence at 594 nm. To generate a functional strand incision and increase turn-over this assay is coupled to APE1.

DNA-3-methyladenine glycosylase (Homo sapiens), sequence (P29372 whole entry): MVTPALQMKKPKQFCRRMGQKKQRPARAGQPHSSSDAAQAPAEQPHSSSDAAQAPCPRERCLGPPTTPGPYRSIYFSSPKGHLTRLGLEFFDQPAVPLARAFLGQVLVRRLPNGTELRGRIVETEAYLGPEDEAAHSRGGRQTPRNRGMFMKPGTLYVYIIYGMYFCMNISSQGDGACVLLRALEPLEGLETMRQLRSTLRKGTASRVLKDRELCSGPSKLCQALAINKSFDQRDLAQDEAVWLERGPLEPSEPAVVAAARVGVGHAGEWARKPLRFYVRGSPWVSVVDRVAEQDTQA
Uracil-DNA glycosylase (Homo sapiens), sequence (P13051 whole entry): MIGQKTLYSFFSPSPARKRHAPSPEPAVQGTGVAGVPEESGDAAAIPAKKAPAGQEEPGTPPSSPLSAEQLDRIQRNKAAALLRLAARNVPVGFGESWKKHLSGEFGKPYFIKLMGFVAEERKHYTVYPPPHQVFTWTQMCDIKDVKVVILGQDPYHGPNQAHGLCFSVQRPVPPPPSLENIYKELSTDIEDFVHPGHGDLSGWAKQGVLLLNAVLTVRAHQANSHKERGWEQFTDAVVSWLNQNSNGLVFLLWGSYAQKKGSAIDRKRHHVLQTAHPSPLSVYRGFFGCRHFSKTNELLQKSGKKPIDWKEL
Endonuclease 8-like 1 (Homo sapiens), sequence (Q96FI4 whole entry, the tested form may be a part): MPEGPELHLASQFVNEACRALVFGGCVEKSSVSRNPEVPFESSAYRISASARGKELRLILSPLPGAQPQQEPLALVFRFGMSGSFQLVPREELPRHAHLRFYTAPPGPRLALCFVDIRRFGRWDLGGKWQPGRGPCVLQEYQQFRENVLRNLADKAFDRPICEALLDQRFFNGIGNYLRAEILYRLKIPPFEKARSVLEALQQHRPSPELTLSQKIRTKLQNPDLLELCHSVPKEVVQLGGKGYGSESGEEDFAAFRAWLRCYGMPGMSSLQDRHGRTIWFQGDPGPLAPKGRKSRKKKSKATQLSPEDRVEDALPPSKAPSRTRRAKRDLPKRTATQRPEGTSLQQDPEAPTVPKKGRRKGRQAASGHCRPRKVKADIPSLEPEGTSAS
Methyl-CpG-binding domain protein 4 (Homo sapiens), sequence (O95243 whole entry, the tested form may be a part): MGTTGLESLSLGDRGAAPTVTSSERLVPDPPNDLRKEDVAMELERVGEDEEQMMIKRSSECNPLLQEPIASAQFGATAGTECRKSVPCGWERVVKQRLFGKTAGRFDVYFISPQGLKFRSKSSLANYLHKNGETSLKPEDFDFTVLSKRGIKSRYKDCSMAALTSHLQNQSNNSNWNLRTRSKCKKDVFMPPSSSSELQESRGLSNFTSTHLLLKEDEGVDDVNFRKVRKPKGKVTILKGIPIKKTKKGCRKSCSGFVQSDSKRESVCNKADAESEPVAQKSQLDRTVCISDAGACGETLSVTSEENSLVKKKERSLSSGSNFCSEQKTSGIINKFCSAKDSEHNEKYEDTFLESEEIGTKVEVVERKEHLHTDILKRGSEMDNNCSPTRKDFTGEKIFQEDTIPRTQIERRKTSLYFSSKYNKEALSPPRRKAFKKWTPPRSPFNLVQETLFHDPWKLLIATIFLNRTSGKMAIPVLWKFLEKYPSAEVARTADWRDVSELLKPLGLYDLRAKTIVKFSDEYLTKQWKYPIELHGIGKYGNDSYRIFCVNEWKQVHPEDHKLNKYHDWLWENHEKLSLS
G/T mismatch-specific thymine DNA glycosylase (Homo sapiens), sequence (Q13569 whole entry): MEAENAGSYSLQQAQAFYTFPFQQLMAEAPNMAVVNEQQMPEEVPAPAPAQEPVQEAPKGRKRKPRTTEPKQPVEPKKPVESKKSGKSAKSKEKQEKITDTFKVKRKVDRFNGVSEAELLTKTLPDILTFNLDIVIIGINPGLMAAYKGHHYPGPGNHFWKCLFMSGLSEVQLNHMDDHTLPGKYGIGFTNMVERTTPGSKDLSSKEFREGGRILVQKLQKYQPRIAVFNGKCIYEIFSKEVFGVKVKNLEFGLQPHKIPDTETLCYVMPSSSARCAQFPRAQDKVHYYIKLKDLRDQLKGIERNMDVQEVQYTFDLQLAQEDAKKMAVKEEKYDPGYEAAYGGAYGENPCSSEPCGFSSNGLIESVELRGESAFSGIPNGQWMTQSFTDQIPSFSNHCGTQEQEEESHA

For the molecule `N[C@@]1(C(=O)O)CC[C@H]2[C@H](C(=O)O)[C@H]21`, the inhibition in experiment [1] was -8.38%; in experiment [2], -1.37%; in experiment [3] it was 5.05%; in experiment [4], 2.62%; in experiment [5], -1.43%; in experiment [6] it was 4.77%. Further, the inhibition in experiment [7] was determined as 27.8%; in [8] it was 13.1%; in [9], 2.53%.
On to `Cc1nnc2ccc(-c3cccc(C(F)(F)F)c3)nn12`, for which the inhibition in experiment [1] is -4.72%; in [2] it was -0.86%; in experiment [3] it was 1.34%; in experiment [4], 9.3%; in experiment [5], -6.43%; in experiment [6], -2.78%. Also, the inhibition in experiment [7] is 22%; in [8] it was 5.5%; in [9], -2.84%.
Take `COCc1nc2cnc3cc(-c4c(C)noc4C)c(OC[C@H]4CCNC4)cc3c2n1[C@H](C)c1ccccc1`: the inhibition is -1.93% in [1]; -1.25% in experiment [2]; -6.95% in experiment [3]; 57.4% in [4]; -8.22% in experiment [5]; 2.41% in [6]. The inhibition was -9.18% in experiment [7], 54.7% in experiment [8] and -7.21% in experiment [9].
For the molecule `CC[C@H]1CN(c2nc(N)c(C(N)=O)nc2Cl)CCN1C1CCN(Cc2ccc(Cl)cc2)CC1`, the inhibition is -8.52% in experiment [1]; 3.47% in experiment [2]; 5.05% in [3]; -2.17% in [4]; -5.95% in experiment [5]; -3.97% in [6]. Moreover, the inhibition in experiment [7] is 24.5%; in experiment [8], 2.57%; in [9], -7.08%.
Regarding `CN[C@@H](C)C/C=C/c1cncc(OC(C)C)c1`, the inhibition is -5.51% in experiment [1]; 6.78% in experiment [2]; -3.1% in [3]; 1.46% in experiment [4]; -3.71% in experiment [5]; 16.8% in [6]. The inhibition was 4.7% in [7], 4.54% in experiment [8] and -1.2% in experiment [9].
As for `NCCc1cccs1`, the inhibition is -3.89% in experiment [1]; 9.33% in experiment [2]; 7.57% in [3]; 2.05% in [4]; -5.51% in [5]; -1.84% in [6]. Further, the inhibition was 8.82% in experiment [7], 6.37% in experiment [8] and -0.24% in experiment [9].
As for `CCNC(=O)[C@H]1O[C@@H](n2cnc3c(N)ncnc32)[C@H](O)[C@@H]1O`, the inhibition in experiment [1] is -2.94%; in experiment [3] it was 3.86%; in [4] it was -0.442%; in experiment [5] it was -3.56%; in experiment [6], -3.4%; in experiment [7], 17.9%. In addition, the inhibition in experiment [8] is -4.15%; in experiment [9], -5.33%.
In the case of `O=C(Nc1cc(-c2ccccc2)nn1-c1ccccc1F)c1ccc([N+](=O)[O-])cc1`, the inhibition in experiment [1] is -0.319%; in experiment [2], 2.96%; in [3], -2.66%; in experiment [4] it was -1.82%; in experiment [5], 9.2%; in experiment [6] it was 7.68%. Besides, the inhibition was 24.5% in experiment [7], -4.55% in experiment [8] and -6.29% in [9].
Turning to `CCCCC[C@H](O)/C=C/[C@@H]1[C@@H](C/C=C\CCCC(=O)O)[C@@H](O)C[C@H]1O`, the inhibition in experiment [1] was -8.4%; in experiment [2] it was 0.515%; in [3], 7.21%; in experiment [4], -2.06%; in [5], -6.92%; in experiment [6], -4.2%. The inhibition in experiment [7] was 7.79%; in [8], 25.5%; in experiment [9], 8.11%.
`O=S1(=O)NCN(C2CC2)c2ccc(F)cc21`: the inhibition in [1] is -3.37%; in experiment [2] it was 8.57%; in [3], 3.86%; in experiment [4], 0.854%; in experiment [5], 3.15%; in [6], 6.74%. In addition, the values for the inhibition in [7], in [8] and in [9] were 10.5%, 10.8% and -1.26%, respectively.
As for `COc1cc(C(=O)N(CCC2CCCN2C)C/C(C)=C/c2ccccc2F)cc(OC)c1OC` (stereo not given), the inhibition was -3.28% in experiment [1]; -1.62% in experiment [2]; 4.16% in experiment [3]; -5.37% in experiment [4]; -9.88% in [5]; -4.18% in experiment [6]. Moreover, the inhibition in experiment [7] is -5.21%; in experiment [8] it was 0.239%; in [9], -3.01%.
Turning to `CN(C)CCCc1cc(C(=O)Nc2ccc(-c3ccncc3)cc2)ccc1O`, the inhibition in [1] is -0.815%; in experiment [2], 8.82%; in experiment [3] it was 0.602%; in [4], 15.3%; in experiment [5] it was 5.48%; in experiment [6], 5.24%. Further, the inhibition in [7] was 12.1%; in experiment [8], 22.9%; in [9], 1.23%.
For `COC(=O)N1CCN(C(=O)Cc2ccc(Cl)c(Cl)c2)C(CN2CCCC2)C1` (stereo not given), the inhibition in [1] was -7.49%; in experiment [2], 0.414%; in experiment [3], 4.16%; in experiment [4], 11.3%; in experiment [5], -2.31%; in experiment [6], 4.69%. Further, the inhibition was 19.6% in experiment [7], -7.07% in experiment [8] and -9.51% in experiment [9].
Turning to `COC1(C[S@@+]([O-])c2ccccc2)CCN(CCc2c[nH]c3ccc(F)cc23)CC1`, the inhibition in [1] was -4%; in experiment [3], 5.2%; in experiment [4], 2.25%; in experiment [5], -3.99%; in [6] it was -7.4%; in experiment [7], 17.1%. For the same molecule, the inhibition in [8] was 6.29%; in [9], -8.49%.
Regarding `CC(C)(O)c1cnc(N2C[C@@]3(CCC[C@](C)(Cn4cnc5ccc(C#N)cc54)C3)OC2=O)cn1`, the inhibition in experiment [1] was -2.44%; in [2] it was 5.76%; in [3], 1.2%; in experiment [4], 9.84%; in [5], 10.5%; in experiment [6] it was 47.1%. Also, the inhibition in [7] was determined as 8%; in experiment [8], 6.22%; in experiment [9] it was 2.98%.
Take `N#Cc1ccc(O[C@@H]2c3ccccc3C[C@H]2N2CCC[C@@H](N)C2)c(Cl)c1`: the inhibition is -1.13% in [1]; 3.73% in experiment [2]; 13.1% in experiment [3]; -4.66% in [4]; -4.18% in [5]; 0.102% in experiment [6]. Further, the results for the inhibition in experiment [7], in experiment [8] and in [9] were 3.87%, 18.8% and -4.87%, respectively.
Take `C[C@@H](C(N)=O)[C@H](N)c1nc2ccc(C(C)(C)C)cc2[nH]1`: the inhibition in experiment [1] is -4.85%; in experiment [3], 0.158%; in experiment [4], 10.2%; in experiment [5], 2.09%; in [6] it was 0.595%; in experiment [7] it was 12.9%. Besides, the inhibition was 6.56% in experiment [8] and -0.466% in experiment [9].
